Source: patent publication US4939177A, “Use of avarol for the control of AIDS and ARC” (Merz + Co. GmbH & Co., priority 1986, dated 1990)
Where two headings read alike, the source gives them in different places.

Columns and labels:
[1] = type: in vivo, rat; settings: for Percentage of Radioactivity in Blood: rat
male NMRI mice = settings: cited from earlier work
[2] = system: human peripheral blood lymphocytes (IgG); assay: In vitro IgG production by peripheral blood lymphocytes; type: cell-based
Method: Human peripheral blood lymphocytes (6×10^5 cells/ml) were cultured in the presence of 0 to 2 μg/ml of pokeweed mitogen (PWM; Sigma no. 9379) in Dulbeccos minimum essential medium, supplemented with 20% fetal calf serum, for 6 days. The assays were performed in a final volume of 200 μl in microtiter plates (Dynatech; M129B) (Muller et al., Eur. J. Cancer Clin. Oncol. 22: 473-476; 1986). Avarol in a concentration range of 0-3 μg/ml was added at time 0 or 3 days after starting the culture. The supernatants were harvested and assayed for human immunoglobulin content.
The culture supernatants were assayed by the enzyme-linked immunosorbent assay (Houtman et al., Clin. Exp. Immunol. 62: 696-704; 1985) using anti-human IgG (Dakopatts, Hamburg; P214) and anti-human IgM (Dakopatts; P215). These antibodies were conjugated to peroxidase. Bound enzyme activity was measured using 2,2'-azino-bis(3-ethylbenzthiazolinesulfonic acid) (Sigma no. A-1888) as substrate.

Lethal dose in rats = settings: rat, in vivo; male Sprague-Dawley rats, treatment for 5 days; read-out: 50% lethal dose
Method: From previous experiments with NMRI mice, bearing L5178y cells, it is known that the chemotherapeutical dose of avarol is in the range of 1-50 mg/kg at a 50% lethal dose of 269.1 mg/kg (Muller et al., Cancer Res. 45: 4822-4826; 1985). The 50% lethal dose (treatment for 5 days) for male Sprague-Dawley rats was determined to be 235.7 mg/kg. Therefore, daily doses of avarol of 1-30 mg/kg/injection were chosen for the following in vivo studies.

herpes simplex virus = settings: in vitro, cultures of herpes simplex virus; cited from earlier work
lymphoma cell = settings: previous studies; cited from earlier work
IgG titer = assay: Serum IgG titer of SRBC-immunized mice; type: in vivo, mouse; settings: 30 mg/kg i.p., untreated 4
Method: The plaque test of Jerne and Nordin (Science 140: 405-406, 1963) was used with the modification given by Cunningham and Szenberg (Immunolog. 14: 599-601; 1968). Briefly, 8 male NMRI mice per group (20-22 g) were immunized on day 0 by i.p. injection of 5×10^8 SRBC in 0.5 ml saline. Treatment with avarol was done i.p. either from day 0 to day +4 or from day -4 to day 0. One hour after the last drug administration, the animals were killed by a blow on the head and bled. The spleens were removed and a single cell suspension was prepared by teasing the pooled spleens through a 120-μm mesh sieve. After lysing the erythrocytes by 0.15M NH4 Cl, the cells were washed twice in Hank's balanced salt solution containing 29 ml of 7.5% NaHCO3 and 10 ml of 1M HEPES buffer solution per one liter. The cells were resuspended in 2 ml per spleen. Six Cunningham chambers per group were filled with a mixture of 0.5 ml of a suitable dilution of spleen cells (generally 1:100), 0.5 ml of a suspension of SRBC (10^9 /ml) and 125 μl of normal guinea pig complement. After 90-120 min of incubation at 37° C., the number of plaques was counted. Plaques per spleen or per 10^6 spleen cells were calculated.
The pooled blood of 8 mice was centrifuged to obtain the serum. IgM and IgG titers were measured with the mercaptoethanol method (Hudson, L. and Hay, F. C. Practical Immunology, Blackwell Sci., Oxford; 1983).

[3] = system: H9-cells infected with HTLV-III; assay: Growth of HTLV-III infected H9 cells; type: cell-based, human; settings: for Cell Concentration: infected H9 cells, four days, controls infected 0.5, uninfected 1.3
Method: For this, the H9 cell line was used, it consisting of a cloned OKT4+ T-cell line in which the AIDS virus propagates (M. Popovic, M. G. Sarngadharan, E. Reed and R. C. Gallo; Science 224, 497-500 (1984)).
H9-cells (M. Popovic, M. G. Sarngadharan, E. Reed, R. C. Gallo, Science: 224, 1984, 497-500) were treated with Polybren® (hexadimethrinbromide available on the market; 2 μg/ml) for 30 minutes at 37° C., washed free of Polybren and infected with 2×10^8 HTLV-III virus particles (isolated from H9 cell cultures by the method of M. Popovic; see above) per 4×10^5 H9 cells. Some assays which were not treated with drugs were used as positive controls, while different concentrations of the compound to be tested (avarone or avarol and their derivatives) were added to the test samples. The HTLV-III reverse transcriptase activity of these cultures was analyzed in the manner described above.
H9-cells as well as H9-cells infected with HTLV-III were used in a concentration of 0.2×10^6 cells/ml of culture medium for the inoculating of a culture medium. After incubation for four days, the density of the H9-cells was 1.3×10^6 cells/ml, while the density of the H9-cells infected with HTLV-III was only 0.5×10^6 cells/ml; these two values formed the control values.
Thereupon samples of H9-HTLV-III cells, 0.2×10^6 cells/ml, were treated for four days with different concentrations of avarol.

normal B-lymphocytes = settings: cited from earlier work

## CC1=CCC[C@H]2[C@](C)(Cc3cc(O)ccc3O)[C@@H](C)CC[C@]12C [Avarol, 2-[(1R)-1,2,3,4,4a,7,8,8aα-octahydro-1β,2β,4aβ,5-tetramethyl-1-naphthylmethyl]-1,4-benzenediol]
[1]; i.v. 10 mg/kg, 1 hour, 100% = 10 minutes after injection
  Percentage of Radioactivity in Blood: 96%
[1]; i.v. 10 mg/kg, 6 hours, 100% = 10 minutes after injection
  Percentage of Radioactivity in Blood: 88%
[1]; i.v. 10 mg/kg, 12 hours, 100% = 10 minutes after injection
  Percentage of Radioactivity in Blood: 72%
[1]; i.v. 10 mg/kg, 24 hours, 100% = 10 minutes after injection
  Percentage of Radioactivity in Blood: 43%
[1]; i.v. 10 mg/kg, 48 hours, 100% = 10 minutes after injection
  Percentage of Radioactivity in Blood: 26%
[1]; i.v. 20 mg/kg, 1 hour, 100% = 10 minutes after injection
  Percentage of Radioactivity in Blood: 92%
[1]; i.v. 20 mg/kg, 12 hours, 100% = 10 minutes after injection
  Percentage of Radioactivity in Blood: 75%
[1]; i.v. 20 mg/kg, 24 hours, 100% = 10 minutes after injection
  Percentage of Radioactivity in Blood: 39%
[1]; i.v. 20 mg/kg, 48 hours, 100% = 10 minutes after injection
  Percentage of Radioactivity in Blood: 21%
[1]; in vivo, iv, 20 mg/kg
  Percentage of Radioactivity in Blood: 83
[1]; rats, i.v.
  half-life: approximately 22 hours
Male NMRI mice; NMRI mice, previous experiments
  50% lethal dose: 269.1 mg/kg
Male NMRI mice; male NMRI mice, acute
  Acute toxicity LD10: 156.4 mg compound/kg
Male NMRI mice; male NMRI mice, subacute
  Subacute toxicity LD10: 138.6 mg compound/kg
  Subacute toxicity LD50: 218.4 mg compound/kg
[2]; 0.3 or 1 μg/ml, irrespective of PWM
  IgG production, in words: significant increase
[2]; avarol 0.3 μg/ml, PWM +, 0 to 6 days
  IgG synthesized: 6.7 ± 1.5 µg/mL
[2]; avarol 0.3 μg/ml, PWM +, 3 to 6 days
  IgG synthesized: 7.9 ± 1.9 µg/mL
[2]; avarol 0.3 μg/ml, PWM -, 0 to 6 days
  IgG synthesized: 2.1 ± 0.5 µg/mL
[2]; avarol 0.3 μg/ml, PWM -, 3 to 6 days
  IgG synthesized: 2.0 ± 0.5 µg/mL
[2]; avarol 1.0 μg/ml, PWM +, 0 to 6 days
  IgG synthesized: 7.0 ± 1.6 µg/mL
[2]; avarol 1.0 μg/ml, PWM +, 3 to 6 days
  IgG synthesized: 8.5 ± 1.9 µg/mL
[2]; avarol 1.0 μg/ml, PWM -, 0 to 6 days
  IgG synthesized: 2.3 ± 0.6 µg/mL
[2]; avarol 1.0 μg/ml, PWM -, 3 to 6 days
  IgG synthesized: 2.2 ± 0.5 µg/mL
[2]; avarol 3.0 μg/ml, PWM +, 0 to 6 days
  IgG synthesized: 3.9 ± 1.0 µg/mL
[2]; avarol 3.0 μg/ml, PWM +, 3 to 6 days
  IgG synthesized: 4.9 ± 1.0 µg/mL
[2]; avarol 3.0 μg/ml, PWM -, 0 to 6 days
  IgG synthesized: 1.2 ± 0.3 µg/mL
[2]; avarol 3.0 μg/ml, PWM -, 3 to 6 days
  IgG synthesized: 1.3 ± 0.3 µg/mL
[2]; higher avarol concentrations
  IgG production, in words: turned to normal values
Lethal dose in rats
  LD50 at 120 h: 236 mg/kg
Herpes simplex virus
  virostatic action: certain virostatic action in vitro
Lymphoma cell
  concentration inhibiting lymphoma cell growth by 50%: 0.3 to 0.4 µg/mL
  sensitivity of T-cell derived leukemia cells vs normal T- or B-lymphocytes: more sensitively inhibited
IgG titer; from 0 to +4 days
  Titer IgG: 2
IgG titer; from -4 to 0 days
  Titer IgG: 4
[3]; about 0.01 μg/ml
  growth rate of H9-HTLV-III cells: increase the growth rate of H9-HTLV-III cells to values which lie within the range of the control
[3]; 0.1 μg/ml
  Cell Concentration: 1.42e+06 mL⁻¹
[3]; 1 μg/ml
  Cell Concentration: 1.09e+06 mL⁻¹
Normal B-lymphocytes
  concentration inhibiting [^3 H] dThd-incorporation rate by 50%: 1.6 to 1.9 µg/mL
